We go through 3 compounds from patent publication US20110027341A1, “DEVICE FOR IN SITU PRODUCTION AND TOPICAL ADMINISTRATION OF ALLICIN” (YEDA RESEARCH AND DEVELOPMENT CO., LTD. at the Weizmann …, priority 2008, published 2011).

For series [1], the system named is Trichoderma hyphae. The series can be described thus: Antifungal activity of the two-filter delivery system on agar plates (halo of inhibition). In kind it is cell-based. The conditions noted are these: for inhibition of fungal growth (halo around filter): filters placed 6 h after seeding 5×10^6 spores, 28° C., overnight incubation, FIG. 3A; for inhibition of fungal growth (halo around filter), mature growth: filters placed after 24 hours incubation, further 16 h, FIG. 3B. The method, then:
In this experiment, the effect of allicin released upon wetting of the two-filter delivery system on spores of Trichoderma hyphae was tested. In particular, four Petri dish plates containing nutrient agar for fungal growth were seeded with 5×10^6 spores of a test soil fungi (Trichoderma hyphae) and incubated at 28° C. […] Additional two plates in each of which a single glass fiber filter containing either the substrate or the enzyme were placed were used as controls and treated the same way. A fourth plate containing only the fungus served as the positive control, and a fifth plate without any fungus was used as the negative control.
A similar experiment was carried out with identical filters on Petri dish plates that contained a more mature Trichoderma hyphae growth (after 24 hours incubation from seeding of the same number of spores). The filters were placed as described above and the plates were incubated for another 16 h.

In series [2] the test system is nail fungus (onychomycosis). The series can be described thus: Repeated topical application of pure allicin on infected toenails of volunteers. Type of series: in vivo. How it is done:
In this preliminary study, the effect of repeated topical application of pure allicin on an infected nail was examined. The study was performed on a group of 10 volunteers infected with nail fungus (onychomycosis), wherein only toenails showing visible signs of being infected with a nail fungus were chosen for the topical treatment. […] The allicin solution was kept at 4° C. in citrate buffer pH 6.0 containing 1 M urea in a dark flask. A round cotton pad was cut in the approximate dimensions and size of the infected toenail (1.3 cm diameter×0.3 cm thick). 0.5 ml of the allicin solution was slowly delivered with a pipette to the surface of the cotton pad and the wet cotton pad was placed on the nail, taking precaution so as not to touch the skin surrounding the nail. The toe with the cotton pad was then covered overnight with a strip made of nylon to secure the pad on the nail and to prevent the spread of the volatile smelly odor of allicin. This treatment was repeated every night for 14 days. […] The treatment was then repeated once a week until all the infected regions of the old nail were cut off.

In series [3] the target is various microorganisms. Description: Sensitivity tests of microorganisms to pure allicin and to allicin from dry alliin/alliinase mixtures (liquid culture, disk filters on agar, tampons). Conditions: for LD50: range over the various microorganisms tested. In kind it is cell-based. How it is done: In this experiment, the effect of allicin released upon wetting of the medicated tampons on various microorganisms, kindly provided by Dr. N. Keller from the clinical microbiology laboratory of the Sheba Medical Center (Tel HaShomer, Israel), was tested. The list of microorganisms included various types of yeasts, in particular, Saccharomyces cerevisiae, Candida albicans and Candida Glabrata; and several types of bacteria, in particular, group B Streptococci, methicillin-resistant Staphylococcus aureus (MRSA) and vancomycin-intermediate Staphylococcus aureus (VISA). In addition, two strains of Trichomonas vaginalis, one adherent to the plastic of the tube and the other non-adherent, were tested.
In addition, various mixtures of dry alliin and dry alliinase were placed inside the cleft of vaginal tampons to yield different amounts of allicin in tubes containing liquid medium with bacteria or yeasts, wherein following overnight incubation, aliquots were taken from the tubes and plated on nutrient agar plates, and the number of colonies developed was determined in comparison to untreated controls. The effects of allicin on Trichomonas vaginalis was tested in liquid cultures, and the viability of the trophozoites after exposure to different concentrations of allicin was determined by the methylene blue vital dye exclusion as previously described (Kiernan, 1974).
Dry glass fiber filters on which a solution containing 5, 20 or 30 μg of pure allicin was dripped just before placing on the seeded agar served as standards, and dry glass fiber filters that were placed on the seeded agar were used as controls.

In series [4] the test system is Trichomonas vaginalis. The series can be described thus: In vitro growth of Trichomonas vaginalis trophozoites with pure allicin (hemacytometer count). Type of series: cell-based. The conditions noted are these: 24 hours, 37° C. How it is done:
The effect of allicin on the different microorganisms was tested in (i) sensitivity tests to different concentrations of pure allicin in liquid culture tubes containing full nutrient medium; […] The effects of allicin on Trichomonas vaginalis was tested in liquid cultures, and the viability of the trophozoites after exposure to different concentrations of allicin was determined by the methylene blue vital dye exclusion as previously described (Kiernan, 1974). […] Aliquotes were taken following incubation of 24 hours and the number of trophozoites was counted using a hemacytometer.

For series [5] the following is noted: kept at cold temperatures, pH around 6; cited from earlier work.
A short description of series [6]: Storage stability of dry alliin/alliinase components and filters (potential to produce allicin). Type of series: physicochemical. Conditions: dry form at room temperature.

Take alliin: in series [1], the “inhibition of fungal growth (halo around filter)” value is given as “No such halos were seen” and the “inhibition of fungal growth (halo around filter), mature growth” value is “such halo is not visible”.
`C=CCS[S+]([O-])CC=C` (stereo not drawn) [allicin, diallyl thiosulfinate]: the “outcome of infected toenails after treatment” value in series [2] (0.5 ml of 0.5 mg/ml allicin solution (citrate buffer pH 6.0, 1 M urea) on cotton pad overnight, every night 14 days, then once a week, 10 volunteers) was “eight individuals had a remarkably healthy regeneration of their toenails”. Besides, the “tolerability: treatment not completed because of garlic smell” value in series [2] (10 volunteers) is reported as “Two individuals did not complete the treatment”. Further, the “color of the fungus in the nail” value in series [2] (by the third day of the treatment) is on record as “turned from dark green to yellowish white”. Further, the “time toenails remained fungus free” value in series [2] (in some cases) is given as “over 2 years”. Moreover, the “color of the emerging new nail” value in series [2] (within two weeks) was “resumed its natural color”. Moreover, in series [3] (all experiments, irrespective of type of microorganism, FIGS. 4-5 and Table 1), the killing of microorganisms entry is “effective killing”. Further, the LD50 in series [3] fell in the range of 8 to 15 µg/mL; in series [3] (as μM allicin) it was 20 to 50 µM. Besides, the “Trophozoites (×10^4)” value in series [4] (allicin 5 μg/ml) is recorded as 48 ×10^4; in series [4] (allicin 10 μg/ml), 45 ×10^4; in series [4] (allicin 15 μg/ml) it was 8 ×10^4; in series [4] (allicin 25 μg/ml), 3 ×10^4. In addition, the degradation rate in series [5] was 8 %/month.
Turning to alliinase, in series [1], the “inhibition of fungal growth (halo around filter)” value is recorded as “No such halos were seen” and the “inhibition of fungal growth (halo around filter), mature growth” value was “such halo is not visible”. Further, in series [6], the “preservation of potential for producing allicin” value is “preserved their potential for producing allicin for several months”.
